Test results published in patent US20260297085A1, “1 H-PYRROLO[2,3-B]PYRIDIN-4-YL]-2-OXOPYRROLIDINE-3-CARBONITRILE DERIVATIVES AS TYROSINE KINASE 2 (TYK2) INHIBITORS FOR THE TREATMENT OF INFLAMMATORY DISEASES” (BIOGEN MA INC., priority 2023, published 2026).
Structures can show the parent of a compound that is named as a salt.

Key:
[1] = target: T1, human TYK2 kinase domain (JH1) (Homo sapiens, UniProt P29597); test: JH1 biochemical assay for TYK2 (ADP-Glo kinase assay, recombinant JH1 catalytic domain, JAK3-974 peptide, 10 μM ATP); details: TYK2 JH1, ADP-Glo
T1 construct: recombinantly generated catalytic kinase (also known as JH1) domain of human JAK1, JAK2, JAK3 and TYK2
T1 sequence (P29597 897-1176 limits assumed): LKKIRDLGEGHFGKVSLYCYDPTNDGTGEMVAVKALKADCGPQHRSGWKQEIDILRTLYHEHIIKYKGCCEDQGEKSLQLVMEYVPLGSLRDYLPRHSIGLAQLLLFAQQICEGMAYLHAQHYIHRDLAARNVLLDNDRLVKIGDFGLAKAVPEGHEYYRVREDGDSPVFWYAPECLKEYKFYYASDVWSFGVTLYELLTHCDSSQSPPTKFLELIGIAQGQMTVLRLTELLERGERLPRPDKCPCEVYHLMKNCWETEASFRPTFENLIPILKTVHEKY
In short: (§1)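 Reactions ran 100 min with 50 μM substrate peptide (JAK3-342 for JAK1 at 4 nM enzyme; JAK3-974 for JAK2 0.2 nM, JAK3 0.3 nM, TYK2 2 nM), and ADP formed was read by ADP-Glo luminescence. Eleven-point 3-fold series from 10 or 1 μM; IC50 fitted by 4-parameter logistic model.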

[2] = target: T2, human JAK1 kinase domain (JH1) (Homo sapiens, UniProt P23458); test: JH1 biochemical assay for JAK1 (ADP-Glo kinase assay, recombinant JH1 catalytic domain, JAK3-342 peptide, 35 μM ATP); details: JAK1 JH1, ADP-Glo
T2 construct: recombinantly generated catalytic kinase (also known as JH1) domain of human JAK1, JAK2, JAK3 and TYK2
T2 sequence (P23458 875-1153 limits assumed): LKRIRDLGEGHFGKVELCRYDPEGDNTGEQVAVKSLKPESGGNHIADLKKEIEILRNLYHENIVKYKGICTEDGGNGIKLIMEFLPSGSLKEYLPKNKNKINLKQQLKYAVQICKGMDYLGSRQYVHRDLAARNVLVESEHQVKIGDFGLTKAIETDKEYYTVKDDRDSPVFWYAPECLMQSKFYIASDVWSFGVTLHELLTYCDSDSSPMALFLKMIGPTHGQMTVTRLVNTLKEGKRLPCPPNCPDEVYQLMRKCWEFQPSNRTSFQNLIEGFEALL
In short: as §1

[3] = target: T3, human JAK2 kinase domain (JH1) (Homo sapiens, UniProt O60674); test: JH1 biochemical assay for JAK2 (ADP-Glo kinase assay, recombinant JH1 catalytic domain, JAK3-974 peptide, 15 μM ATP); details: JAK2 JH1, ADP-Glo
T3 construct: recombinantly generated catalytic kinase (also known as JH1) domain of human JAK1, JAK2, JAK3 and TYK2
T3 sequence (O60674 849-1124 limits assumed): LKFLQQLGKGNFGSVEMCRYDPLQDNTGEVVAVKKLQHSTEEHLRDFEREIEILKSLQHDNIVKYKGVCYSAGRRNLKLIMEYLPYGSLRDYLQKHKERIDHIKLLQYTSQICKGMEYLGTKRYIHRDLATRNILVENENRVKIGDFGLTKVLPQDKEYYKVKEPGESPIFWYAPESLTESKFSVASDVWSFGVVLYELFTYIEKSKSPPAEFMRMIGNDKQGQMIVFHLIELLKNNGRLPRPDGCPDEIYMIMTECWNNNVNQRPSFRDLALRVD
In short: as §1

[4] = target: T4, human JAK3 kinase domain (JH1) (Homo sapiens, UniProt P52333); test: JH1 biochemical assay for JAK3 (ADP-Glo kinase assay, recombinant JH1 catalytic domain, JAK3-974 peptide, 4 μM ATP); details: JAK3 JH1, ADP-Glo
T4 construct: recombinantly generated catalytic kinase (also known as JH1) domain of human JAK1, JAK2, JAK3 and TYK2
T4 sequence (P52333 822-1111 limits assumed): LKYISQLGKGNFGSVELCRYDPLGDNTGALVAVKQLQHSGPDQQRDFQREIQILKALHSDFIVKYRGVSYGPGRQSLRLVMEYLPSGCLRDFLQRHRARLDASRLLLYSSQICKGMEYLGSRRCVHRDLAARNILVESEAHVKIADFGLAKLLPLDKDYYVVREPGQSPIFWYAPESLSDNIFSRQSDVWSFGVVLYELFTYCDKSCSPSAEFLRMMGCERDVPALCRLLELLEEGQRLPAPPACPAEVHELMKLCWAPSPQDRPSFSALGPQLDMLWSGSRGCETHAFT
In short: as §1

IC50 [1] [nM] | IC50 [2] [nM] | IC50 [3] [nM] | IC50 [4] [nM] | Structure (SMILES)
50 to 100 | 1000 to 5000 | 1000 to 5000 | 100 to 1000 | C[C@@H]1CN(c2nc(-c3cccnc3)cn3ncc(F)c23)C(=O)[C@]1(C#N)C1CC1 [Example 222, (3R,4S)-3-cyclopropyl-1-(3-fluoro-6-(pyridin-3-yl)pyrazolo[1,5-a]pyrazin-4-yl)-4-methyl-2-oxopyrrolidine-3-carbonitrile]
50 to 100 | 1000 to 5000 | 1000 to 5000 | 1000 to 5000 | COc1cncc(-c2cn3ncc(F)c3c(N3C[C@@H](C)[C@@](C#N)(C4CC4)C3=O)n2)c1 [Example 223, (3R,4S)-3-cyclopropyl-1-(3-fluoro-6-(5-methoxypyridin-3-yl)pyrazolo[1,5-a]pyrazin-4-yl)-4-methyl-2-oxopyrrolidine-3-carbonitrile]
20 to 50 | 100 to 1000 | 1000 to 5000 | 1000 to 5000 | COc1ccc(-c2cn3nccc3c(N3C[C@@H](C)[C@@](C#N)(C4CC4)C3=O)n2)cn1 [Example 224, (3R,4S)-3-cyclopropyl-1-(6-(6-methoxypyridin-3-yl)pyrazolo[1,5-a]pyrazin-4-yl)-4-methyl-2-oxopyrrolidine-3-carbonitrile]
> 100 | 5000 to 10000 | > 10000 | > 10000 | C[C@@H]1CN(c2nc(-c3cccnc3F)cn3nccc23)C(=O)[C@]1(C#N)C1CC1 [Example 226, (3R,4S)-3-cyclopropyl-1-(6-(2-fluoropyridin-3-yl)pyrazolo[1,5-a]pyrazin-4-yl)-4-methyl-2-oxopyrrolidine-3-carbonitrile trifluoroacetate]
> 100 | 1000 to 5000 | > 10000 | 1000 to 5000 | C[C@@H]1CN(c2nc(-c3ccn(C)n3)cn3nccc23)C(=O)[C@]1(C#N)C1CC1 [Example 229, (3R,4S)-3-cyclopropyl-4-methyl-1-(6-(1-methyl-1H-pyrazol-3-yl)pyrazolo[1,5-a]pyrazin-4-yl)-2-oxopyrrolidine-3-carbonitrile trifluoroacetate]
> 100 | > 10000 | > 10000 | > 10000 | COc1cc(-c2cn3nccc3c(N3C[C@@H](C)[C@@](C#N)(C4CC4)C3=O)n2)ccn1 [Example 231, (3R,4S)-3-cyclopropyl-1-(6-(2-methoxy-pyridin-4-yl)pyrazolo[1,5-a]pyrazin-4-yl)-4-methyl-2-oxopyrrolidine-3-carbonitrile trifluoroacetate]
> 100 | > 10000 | > 10000 | > 10000 | C[C@@H]1CN(c2nc(-c3ccc(C(F)(F)F)nc3)cn3nccc23)C(=O)[C@]1(C#N)C1CC1 [Example 238, (3R,4S)-3-cyclopropyl-4-methyl-2-oxo-1-(6-(6-(trifluoromethyl)pyridin-3-yl)pyrazolo[1,5-a]pyrazin-4-yl)pyrrolidine-3-carbonitrile trifluoroacetate]
> 100 | > 10000 | > 10000 | > 10000 | COc1ncc(-c2cn3nccc3c(N3C[C@@H](C)[C@@](C#N)(C4CC4)C3=O)n2)cn1 [Example 240, (3R,4S)-3-cyclopropyl-1-(6-(2-methoxypyrimidin-5-yl)pyrazolo[1,5-a]pyrazin-4-yl)-4-methyl-2-oxopyrrolidine-3-carbonitrile trifluoroacetate]
50 to 100 | 100 to 1000 | 1000 to 5000 | 1000 to 5000 | Cc1cc(-c2cn3nccc3c(N3C[C@@H](C)[C@@](C#N)(C4CC4)C3=O)n2)ccn1 [Example 241, (3R,4S)-3-cyclopropyl-4-methyl-1-(6-(2-methylpyridin-4-yl)pyrazolo[1,5-a]pyrazin-4-yl)-2-oxopyrrolidine-3-carbonitrile trifluoroacetate]
> 100 | > 10000 | > 10000 | > 10000 | C[C@@H]1CN(c2nc(-c3cccc4cnn(C)c34)cn3nccc23)C(=O)[C@]1(C#N)C1CC1 [Example 242, (3R,4S)-3-cyclopropyl-4-methyl-1-(6-(1-methyl-1H-indazol-7-yl)pyrazolo[1,5-a]pyrazin-4-yl)-2-oxopyrrolidine-3-carbonitrile]
> 100 | 1000 to 5000 | > 10000 | 1000 to 5000 | C[C@@H]1CN(c2nc(-c3ccc(F)nc3)cn3nccc23)C(=O)[C@]1(C#N)C1CC1 [Example 243, (3R,4S)-3-cyclopropyl-1-(6-(6-fluoropyridin-3-yl)pyrazolo[1,5-a]pyrazin-4-yl)-4-methyl-2-oxopyrrolidine-3-carbonitrile trifluoroacetate]
5 to 20 | 100 to 1000 | 100 to 1000 | 100 to 1000 | C[C@@H]1CN(c2nc(-c3cncc(F)c3)cn3nccc23)C(=O)[C@]1(C#N)C1CC1 [Example 246, (3R,4S)-3-cyclopropyl-1-(6-(5-fluoropyridin-3-yl)pyrazolo[1,5-a]pyrazin-4-yl)-4-methyl-2-oxopyrrolidine-3-carbonitrile trifluoroacetate]
> 100 | > 10000 | > 10000 | > 10000 | C[C@@H]1CN(c2nc(-c3ncc[nH]3)cn3nccc23)C(=O)[C@]1(C#N)C1CC1 [Example 247, (3R,4S)-1-(6-(1H-imidazol-2-yl)pyrazolo[1,5-a]pyrazin-4-yl)-3-cyclopropyl-4-methyl-2-oxopyrrolidine-3-carbonitrile trifluoroacetate]
20 to 50 | 100 to 1000 | 1000 to 5000 | 1000 to 5000 | C[C@@H]1CN(c2nc(-c3cncc(Cl)c3)cn3nccc23)C(=O)[C@]1(C#N)C1CC1 [Example 248, (3R,4S)-1-(6-(5-chloropyridin-3-yl)pyrazolo[1,5-a]pyrazin-4-yl)-3-cyclopropyl-4-methyl-2-oxopyrrolidine-3-carbonitrile trifluoroacetate]
> 100 | > 10000 | > 10000 | 5000 to 10000 | CC(=O)Nc1cncc(-c2cn3nccc3c(N3C[C@@H](C)[C@@](C#N)(C4CC4)C3=O)n2)c1 [Example 249, N-(5-(4-((3R,4S)-3-cyano-3-cyclopropyl-4-methyl-2-oxopyrrolidin-1-yl)pyrazolo[1,5-a]pyrazin-6-yl)pyridin-3-yl)acetamide trifluoroacetate]
20 to 50 | 100 to 1000 | 1000 to 5000 | 1000 to 5000 | COc1ncccc1-c1cn2nccc2c(N2C[C@@H](C)[C@@](C#N)(C3CC3)C2=O)n1 [Example 250, (3R,4S)-3-cyclopropyl-1-(6-(2-methoxypyridin-3-yl)pyrazolo[1,5-a]pyrazin-4-yl)-4-methyl-2-oxopyrrolidine-3-carbonitrile]
20 to 50 | 1000 to 5000 | > 10000 | 5000 to 10000 | COc1cc(-c2cn3nccc3c(N3C[C@@H](C)[C@@](C#N)(C4CC4)C3=O)n2)c(OC)nn1 [Example 253, (3R,4S)-3-cyclopropyl-1-(6-(3,6-dimethoxypyridazin-4-yl)pyrazolo[1,5-a]pyrazin-4-yl)-4-methyl-2-oxopyrrolidine-3-carbonitrile trifluoroacetate]
20 to 50 | 100 to 1000 | 100 to 1000 | 100 to 1000 | C[C@@H]1CN(c2nc(-c3ccnn3C)cn3nccc23)C(=O)[C@]1(C#N)C1CC1 [Example 254, (3R,4S)-3-cyclopropyl-4-methyl-1-(6-(1-methyl-1H-pyrazol-5-yl)pyrazolo[1,5-a]pyrazin-4-yl)-2-oxopyrrolidine-3-carbonitrile trifluoroacetate]
20 to 50 | < 100 | > 10000 | 100 to 1000 | C[C@@H]1CN(c2nc(-c3cccc(F)n3)cn3nccc23)C(=O)[C@]1(C#N)C1CC1 [Example 255, (3R,4S)-3-cyclopropyl-1-(6-(6-fluoropyridin-2-yl)pyrazolo[1,5-a]pyrazin-4-yl)-4-methyl-2-oxopyrrolidine-3-carbonitrile trifluoroacetate]
> 100 | > 10000 | 1000 to 5000 | 1000 to 5000 | C[C@@H]1CN(c2nc(-c3cccnc3OC(F)F)cn3nccc23)C(=O)[C@]1(C#N)C1CC1 [Example 256, (3R,4S)-3-cyclopropyl-1-(6-(2-(difluoromethoxy)pyridin-3-yl)pyrazolo[1,5-a]pyrazin-4-yl)-4-methyl-2-oxopyrrolidine-3-carbonitrile trifluoroacetate]
50 to 100 | 100 to 1000 | 1000 to 5000 | 1000 to 5000 | C[C@@H]1CN(c2nc(-c3cncc(C(F)(F)F)c3)cn3nccc23)C(=O)[C@]1(C#N)C1CC1 [Example 260, (3R,4S)-3-cyclopropyl-4-methyl-2-oxo-1-(6-(5-(trifluoromethyl)pyridin-3-yl)pyrazolo[1,5-a]pyrazin-4-yl)pyrrolidine-3-carbonitrile trifluoroacetate]
